Earlier results in publication PMC8923172 (Antimicrobial Agents and Chemotherapy, 2022).

Test system: LPS-induced ALI
Conditions: 2 mg/kg; cited from earlier work

C[C@@H]1C[C@H]2[C@@H]3CCC4=CC(=O)C=C[C@]4(C)[C@@]3(F)[C@@H](O)C[C@]2(C)[C@@]1(O)C(=O)CO [dexamethasone]
decrease in IFN-γ in bronchoalveolar lavage fluid: ~43% | decrease in IL-6 in bronchoalveolar lavage fluid: approximately 26% | decrease in IP-10 (CXCL10) in bronchoalveolar lavage fluid: ~50%
